Source: ChEMBL document CHEMBL3856221, “Structural modifications of the serotonin 5-HT7 receptor agonist N-(4-cyanophenylmethyl)-4-(2-biphenyl)-1-piperazinehexanamide (LP-211) to improve in vitro microsomal stability: A case study” (Eur J Med Chem, 2016)

How the values were obtained:
[1] = Stability in mouse liver microsomes assessed as oxidative metabolism by measuring drug recovery at 10 uM preincubated for 10 mins followed by NADPH addition measured after 30 mins by liquid chromatographic method; type: ADME; details: liver microsomes, read-out: Drug recovery
[2] = Displacement of [3H]-prazosin from adrenergic alpha 1 receptor in pig brain cortical membranes after 50 mins by microbeta counting analysis; type: ADME, cell membranes, Sus scrofa
[3] = target: T1, 5-hydroxytryptamine receptor 1A (Homo sapiens, UniProt P08908); assay: Displacement of [3H]-8-OH-DPAT from human 5-HT1A receptor expressed in HEK293 cell membranes after 1 hr by microbeta counting analysis
T1 sequence (P08908 whole entry): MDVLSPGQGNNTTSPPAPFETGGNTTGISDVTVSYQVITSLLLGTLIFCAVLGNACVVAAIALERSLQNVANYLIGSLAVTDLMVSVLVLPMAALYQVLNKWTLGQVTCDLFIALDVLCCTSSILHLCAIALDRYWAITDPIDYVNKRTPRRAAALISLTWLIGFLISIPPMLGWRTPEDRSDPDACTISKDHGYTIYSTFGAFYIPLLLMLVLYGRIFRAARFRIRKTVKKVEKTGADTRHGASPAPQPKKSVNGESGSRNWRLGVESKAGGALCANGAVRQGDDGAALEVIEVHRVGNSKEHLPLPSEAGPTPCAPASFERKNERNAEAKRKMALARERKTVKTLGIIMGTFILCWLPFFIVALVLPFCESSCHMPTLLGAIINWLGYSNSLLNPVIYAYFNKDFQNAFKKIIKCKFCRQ

[4] = target: 5-hydroxytryptamine receptor 6 (Homo sapiens, UniProt P50406); assay: Displacement of [3H]-LSD from human 5-HT6 receptor expressed in HEK293 cell membranes after 1 hr by microbeta counting analysis
[5] = Retention factor, logKw of compound in MeOH/0.01 M phosphate buffer at pH 7.4 by RP-HPLC method; type: physicochemical
D(2) dopamine receptor = D(2) dopamine receptor (Homo sapiens, UniProt P14416); assay: Displacement of [3H]raclopride from human dopamine D2L receptor expressed in HEK293 cell membranes after 1 hr by microbeta counting analysis; type: cell-based
[6] = target: 5-hydroxytryptamine receptor 7 (Homo sapiens, UniProt P34969); assay: Displacement of [3H]-5-CT from human 5-HT7b receptor expressed in HEK293 cell membranes after 1 hr by microbeta counting analysis
[7] = Half life in mouse liver microsomes in presence of NADPH by liquid chromatographic method; type: ADME; details: liver microsomes

D(2) dopamine receptor, sequence (P14416 whole entry): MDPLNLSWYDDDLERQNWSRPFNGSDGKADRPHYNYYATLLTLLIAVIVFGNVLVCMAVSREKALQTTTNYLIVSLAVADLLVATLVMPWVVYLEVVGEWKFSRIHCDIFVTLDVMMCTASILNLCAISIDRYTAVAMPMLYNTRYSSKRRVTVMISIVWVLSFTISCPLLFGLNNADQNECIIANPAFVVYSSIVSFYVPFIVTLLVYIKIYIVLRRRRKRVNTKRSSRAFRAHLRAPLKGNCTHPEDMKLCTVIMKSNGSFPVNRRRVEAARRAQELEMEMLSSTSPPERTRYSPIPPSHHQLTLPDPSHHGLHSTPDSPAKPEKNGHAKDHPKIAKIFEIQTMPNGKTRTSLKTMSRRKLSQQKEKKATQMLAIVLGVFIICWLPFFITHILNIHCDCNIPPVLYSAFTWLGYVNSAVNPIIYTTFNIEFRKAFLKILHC
5-hydroxytryptamine receptor 7, sequence (P34969 whole entry): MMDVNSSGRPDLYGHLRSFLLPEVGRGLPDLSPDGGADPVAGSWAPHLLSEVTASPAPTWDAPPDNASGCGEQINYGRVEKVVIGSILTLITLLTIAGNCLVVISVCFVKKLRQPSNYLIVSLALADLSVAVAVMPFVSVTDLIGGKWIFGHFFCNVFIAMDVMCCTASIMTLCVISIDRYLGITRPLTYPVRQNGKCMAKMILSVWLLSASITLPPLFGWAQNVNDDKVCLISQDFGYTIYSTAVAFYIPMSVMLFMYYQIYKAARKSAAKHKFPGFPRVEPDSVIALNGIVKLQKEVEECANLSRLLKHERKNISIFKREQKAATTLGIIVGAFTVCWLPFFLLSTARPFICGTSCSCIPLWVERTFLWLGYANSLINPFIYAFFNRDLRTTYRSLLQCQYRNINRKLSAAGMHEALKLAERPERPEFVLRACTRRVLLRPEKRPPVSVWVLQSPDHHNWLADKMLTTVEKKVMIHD
5-hydroxytryptamine receptor 6, sequence (P50406 whole entry): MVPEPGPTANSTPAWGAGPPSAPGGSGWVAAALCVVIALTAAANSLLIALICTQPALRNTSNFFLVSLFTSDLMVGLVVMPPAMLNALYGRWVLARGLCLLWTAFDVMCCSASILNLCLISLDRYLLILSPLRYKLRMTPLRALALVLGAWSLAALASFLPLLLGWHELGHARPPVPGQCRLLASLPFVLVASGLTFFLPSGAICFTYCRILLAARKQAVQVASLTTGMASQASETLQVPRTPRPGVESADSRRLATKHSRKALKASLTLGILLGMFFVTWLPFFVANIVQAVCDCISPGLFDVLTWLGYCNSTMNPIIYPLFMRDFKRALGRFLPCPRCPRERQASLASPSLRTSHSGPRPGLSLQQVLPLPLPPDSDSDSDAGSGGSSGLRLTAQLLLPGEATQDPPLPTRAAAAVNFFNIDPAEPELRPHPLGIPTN

| Compound | remaining at 0.5 h, 10 µM [1] | Ki [2] | Ki [3] | Ki [4] | logKw [5] | Ki (D(2) dopamine receptor) | Ki [6] | half-life [7] |
| --- | --- | --- | --- | --- | --- | --- | --- | --- |
| COc1ccc(-c2ccccc2N2CCN(CCCCCC(=O)NCc3ccc(OCCCN4CCOCC4)cc3)CC2)cc1 | 3 to 3.3% | 53 nM | 105 nM | 1620 nM | 0.62 | 260 nM | 18.5 nM | – |
| COc1ccc(-c2ccccc2N2CCN(CCCCCC(=O)N[C@H](C)c3ccccc3)CC2)cc1 | 0.7 to 3% | 36 nM | 134 nM | 721 nM | 0.71 | 295 nM | 11.5 nM | – |
| COc1ccc(-c2ccccc2N2CCN(CCOCCC(=O)NCc3ccncc3)CC2)cc1 | 25% | – | – | – | 0.25 | – | – | – |
| COc1ccc(-c2ccccc2N2CCN(CCCCCC(=O)NCc3ccc(C#N)cc3)CC2)cc1 | 25% | 30 nM | 126 nM | 745 nM | 0.54 | 293 nM | 8 nM | 18 min |
| C[C@@H]1CN(c2ccccc2-c2ccccc2)CCN1CCCCCC(=O)NCc1ccccc1 | 3% | 11.6 nM | 101 nM | 434 nM | 0.58 | 178 nM | 14 nM | – |
| COc1ccc(-c2ccccc2N2CCN(CCCCCC(=O)N[C@@H](C)c3ccc(C#N)cc3)CC2)cc1 | 24% | 12.9 nM | 147 nM | 700 nM | 0.59 | 308 nM | 19 nM | 29 min |
| C[C@H]1CN(c2ccccc2-c2ccccc2)CCN1CCCCCC(=O)NCc1ccccc1 | 5% | 42.6 nM | 202 nM | 395 nM | 0.59 | 243 nM | 36.5 nM | – |
| O=C(CCCCCN1CCN(c2ccccc2-c2ccccc2)CC1)NCc1ccc(OCCCN2CCOCC2)cc1 | 3.3% | 12.3 nM | 149 nM | 1150 nM | 0.63 | 64 nM | 9.5 nM | – |
| O=C(CCOCCN1CCN(c2ccccc2-c2ccccc2)CC1)NCc1ccncc1 | 13% | 94 nM | 1050 nM | 2520 nM | 0.27 | 2450 nM | 53 nM | – |
| COc1ccc(-c2ccccc2N2CCN(CCOCCC(=O)NCc3cccnc3)CC2)cc1 | 23% | – | – | – | 0.23 | – | – | – |
| N#Cc1ccc(CNC(=O)CCOCCN2CCN(c3ncccc3-c3ccccc3)CC2)cc1 | 1.6 to 3% | – | 595 nM | 1630 nM | 0.11 | – | 76 nM | – |
| O=C(CCOCCN1CCN(c2ccccc2-c2ccccc2)CC1)NCc1ccc(C(F)(F)F)cc1 | 3% | 245 nM | – | 830 nM | 0.75 | 345 nM | – | – |
| CS(=O)(=O)Oc1ccc(CNC(=O)CCCCCN2CCN(c3ccccc3-c3ccccc3)CC2)cc1 | < 3% | – | – | – | – | – | – | – |
| COc1ccc(-c2ccccc2N2CCN(CCCCCC(=O)N[C@@H](C)c3ccccc3)CC2)cc1 | 21% | 22.1 nM | 103 nM | 652 nM | 0.71 | 177 nM | 15.5 nM | – |
| N#Cc1ccc(CNC(=O)CCCCCN2CCN(c3ccc(F)cc3-c3ccc(C#N)cc3)CC2)cc1 | 22% | 3.2 nM | 2870 nM | 927 nM | 0.23 | 1380 nM | 27 nM | 26 min |
| COc1ccc(-c2ccccc2N2CCN(CCCCCC(=O)NCc3cccnc3)CC2)cc1 | 32% | – | – | – | 0.38 | – | – | – |
| N#Cc1ccc(CNC(=O)CCOCCN2CCN(c3ccccc3-c3ccccc3)CC2)cc1 | 5% | 9.3 nM | – | 148 nM | 0.41 | – | – | – |

Second part, the molecule after the results:

| remaining at 0.5 h, 10 µM [1] | Ki [2] | Ki [3] | Ki [4] | logKw [5] | Ki (D(2) dopamine receptor) | Ki [6] | half-life [7] | Compound |
| --- | --- | --- | --- | --- | --- | --- | --- | --- |
| < 3% | – | – | – | 0.68 | – | – | – | O=C(CCCCCN1CCN(c2ccccc2-c2ccccc2)CC1)NCc1ccccc1 |
| 5.4% | 20 nM | 86 nM | 413 nM | 0.44 | 36 nM | 4.5 nM | – | COCOc1ccc(CNC(=O)CCCCCN2CCN(c3ccccc3-c3ccccc3)CC2)cc1 |
| 35% | – | – | – | 0.39 | – | – | – | COc1ccc(-c2ccccc2N2CCN(CCCCCC(=O)NCc3ccncc3)CC2)cc1 |
| 1% | 156 nM | 2630 nM | 1620 nM | 0.15 | – | 54 nM | – | N#Cc1ccc(CNC(=O)CCOCCN2CCN(c3ncccc3-c3ccc(F)cc3)CC2)cc1 |
| 19% | 53 nM | 152 nM | 1340 nM | 0.39 | 419 nM | 14.5 nM | – | COc1ccc(-c2ccccc2N2CCN(CCCCCC(=O)NCc3ccc(OCCO)cc3)CC2)cc1 |
| 2% | 310 nM | 3840 nM | 3440 nM | -0.14 | – | 87 nM | – | N#Cc1ccc(CNC(=O)CCOCCN2CCN(c3cccnc3-c3ccccc3)CC2)cc1 |
| 5% | 7.4 nM | 160 nM | 1720 nM | 0.59 | 136 nM | 16 nM | – | O=C(CCCCCN1CCN(c2ccccc2-c2ccccc2)CC1)NCc1ccc(OCCN2CCOCC2)cc1 |
| 6% | 263 nM | 6060 nM | 2630 nM | 0.14 | 3460 nM | 254 nM | – | O=C(CCOCCN1CCN(c2cccnc2-c2ccc(F)cc2)CC1)NCc1ccc(C(F)(F)F)cc1 |
| 9% | 914 nM | 6630 nM | 2810 nM | -0.09 | 1960 nM | 108 nM | – | N#Cc1ccc(CNC(=O)CCOCCN2CCN(c3cccnc3-c3ccc(F)cc3)CC2)cc1 |
| 8.3% | 5.9 nM | 160 nM | 640 nM | 0.38 | 321 nM | 6.5 nM | – | COCOc1ccc(CNC(=O)CCCCCN2CCN(c3ccccc3-c3ccc(OC)cc3)CC2)cc1 |
| 1% | 1220 nM | 365 nM | 1040 nM | 0.48 | – | 52 nM | – | O=C(CCOCCN1CCN(c2ncccc2-c2ccccc2)CC1)NCc1ccc(C(F)(F)F)cc1 |
| 26% | 17.8 nM | 109 nM | 843 nM | 0.54 | 243 nM | 12 nM | 23 min | COc1ccc(-c2ccccc2N2CCN(CCCCCC(=O)N[C@H](C)c3ccc(C#N)cc3)CC2)cc1 |
| 2% | 1370 nM | 1840 nM | 1070 nM | 0.42 | 393 nM | 32 nM | – | O=C(CCOCCN1CCN(c2ncccc2-c2ccc(F)cc2)CC1)NCc1ccc(C(F)(F)F)cc1 |
| 15% | 26 nM | 163 nM | 1710 nM | 0.57 | 375 nM | 25 nM | – | COc1ccc(-c2ccccc2N2CCN(CCCCCC(=O)NCc3ccc(OCCN4CCOCC4)cc3)CC2)cc1 |
| 19% | – | – | – | 0.32 | – | – | – | COc1ccc(-c2ccccc2N2CCN(CCOCCC(=O)NCc3ccccn3)CC2)cc1 |
| 1% | 471 nM | 802 nM | 2210 nM | 0.16 | 2770 nM | 44 nM | – | O=C(CCOCCN1CCN(c2cccnc2-c2ccccc2)CC1)NCc1ccc(C(F)(F)F)cc1 |
| 16% | 46.4 nM | 66 nM | 480 nM | 0.75 | 53 nM | 10 nM | – | C[C@H](NC(=O)CCCCCN1CCN(c2ccccc2-c2ccccc2)CC1)c1ccccc1 |
| 9% | 36.6 nM | 80 nM | 561 nM | 0.75 | 116 nM | 10.5 nM | – | C[C@@H](NC(=O)CCCCCN1CCN(c2ccccc2-c2ccccc2)CC1)c1ccccc1 |
| 6% | – | – | – | 0.47 | – | – | – | COc1ccc(-c2ccccc2N2CCN(CCCCCC(=O)NCc3ccccn3)CC2)cc1 |
| 3 to 5% | 23 nM | 74 nM | 1510 nM | 0.68 | 75 nM | 21 nM | – | CN(C)Cc1ccc(CNC(=O)CCCCCN2CCN(c3ccccc3-c3ccccc3)CC2)cc1 |
| 10% | 4.5 nM | – | – | – | – | 259 nM | – | O=C(CCCCCN1CCN(c2ccccc2-c2ccccc2)CC1)NCc1ccc(OCCO)cc1 |
